Test results from patent publication US10800806B2, “Sterol derivatives and use thereof for treating diseases involving transformed astrocyte cells or for treating malignant haemopathies” (BETA INNOV, priority 2012, dated 2020).
Blank lines part the entries; values can stand above or below the molecule they belong to.

Columns and labels:
GBMs (rat line C6) = details: in vitro; cited from earlier work
[1] = system: immortalized (spontaneously transformed) rat astrocyte lines; details: in vitro; cited from earlier work
[2] = system: human glioblastoma lines (GBM, line U-87 MG); test: Anti-GBM activity in vitro on cultures of human U87-MG cells, cell aggregates (CA); format: cell-based
Method: (§1) Plastic flat-bottomed 96-well culture plates (NUNC, USA) treated for cell culture (Sigma-Aldrich, ref. 114754) are used; 1500 cells are seeded per well in 200 μl of culture medium. At the time of treatment, 100 μl of pure culture medium, 100 μl of culture medium containing ethanol, or liposomes, or 100 μl of culture medium containing the active ingredients are added per well; the final volume of the culture medium, after treatment, is therefore 300 μl for all the wells.
The human glioblastoma lines (GBM, line U-87 MG) and their culture medium (Eagle's Minimum Essential Medium or EMEM) were obtained from ATCC (USA, ref. ATCC-HTB-14). Culture of the cells is started and maintained according to the recommendations of the ATCC. These lines are commonly used “in vitro” and “in vivo” for testing anti-GBM potential. The doubling time of these lines is 16 h.
The active ingredients are either dissolved in absolute ethanol (AnalaR, NORMAPUR, VWR, France) or in the form of a liposomal solution, such as 10 μl of the stock solutions diluted in 990 μl and then added to the culture wells ([…] medium per well BI-GBM: 300 μl).
(§2) When the active ingredients are in ethanolic solution, the culture medium contains […] ethanol (v/v).
Briefly, the compounds to be tested, namely the compounds according to the invention (active ingredients) or 7β-OHCH—C3-ester (a derivative of 7beta-hydroxysterol esterified in position 3 with an oleate group, the synthesis of which is described by Rakotoarivelo et al. (18) and used as control), soya phosphatidylcholine (Sigma) as well as cholesteryl-3-sulphate (Sigma) are taken from their stock solutions prepared from dichloroethane in the case of the active ingredients and the 7β-OHCH—C3-ester, a chloroform:methanol mixture (9:1, v/v) in the case of phosphatidylcholine and chloroform in the case of cholesteryl-3-sulphate. The molar ratios are 1 M/0.1 M/0.25 M for phosphatidylcholine, cholesteryl-3-sulphate and the 7β-OHCH—C3-ester and the active ingredients respectively.
After evaporation, a solution of PBS saline, without Ca^2+ and Mg^2+, pH7.2 (BioRad) is added to the dry compound. The volume of buffer and the mass of the products are adjusted so that 20 or 10 μl of liposomes added to 90 μl of culture medium gives the desired final concentrations. The liposomes are formed by the extrusion technique with Liposofast (Sodexim, SA Muizon, France). The solution is passed through polycarbonate filtration membranes (100 nm) 41 times. The liposomes are sterilized by filtration on […] Millipore membranes.
(§3) For example, in the case of the cultures in 96-well plates and as a function of the magnification of the microscope used (objectives×10 or ×20, oculars×10), a photograph taken represents a field of view with a diameter equal to 1/5 of the diameter of a well. Therefore the total number of cells in a well is equal to […] the number of cells per photograph. This technique was compared with a standard technique (trypsinization of the cell layer, centrifugation of the cells, suspension of the cells in physiological saline solution and counting with a THOMA cell) in the case of the C6 cells. The results obtained are identical for both methods.
(§4) The culture medium is withdrawn from each well and 50 μl of Laemmli buffer (0.1 ml of Tris, 0.8 ml of glycerol, 1.6 mL of 10% SDS, 8 ml q.s.f ultrapure water) is added per well.
This test makes it possible to detect the cellular respiration, especially the mitochondrial respiration. The stock solution of tetrazolium salt MTT (3-(4,5-dimethylthiazol-2-yl)-2,5-diphenyl tetrazolium bromide, Sigma-Aldrich, USA, ref. M5655) is prepared with 10 mg of MIT/ml of PBS buffer (phosphate-buffered saline, SIGMA, ref. D 1408). This solution is added directly to the culture medium in each well; the final concentration of MTT is 25 μg/ml. The plate is then incubated at 37° C. for at least 1 h. […]

Solubility in ethanol = format: physicochemical; details: ethanolic form
[3] = system: CD133+ stem cells (U87-MG cultures); test: Immunolabelling of the CD133+ stem cells with the A/B peroxidase system; format: cell-based, human; details: for CD133+ cells, percentage relative to the controls: 80 μM in liposomal form; for destruction of the CD133+ stem cells: liposomal form
Method: The anti-CD133 (poly, Abnova), anti-GFAP (poly, Sigma), anti-NFL (mono, Santa Cruz) and anti-fibroblast (ERTR7, Santa Cruz) primary antibodies are diluted to 1/100 in the case of the first three antibodies and to 1/50 in the case of the last.
The secondary antibodies corresponding to recognition of the primary antibodies are anti-rabbit antibodies coupled to peroxidase (goat, Sigma), anti-mouse coupled to Dylight 488 (sheep, Sigma), anti-mouse coupled to Dylight 488 (sheep, Sigma) and anti-rat coupled to FITC (rabbit, Sigma). The dilutions are 1/4000, 1/1000, 1/4000 and 1/400 respectively.
The cells are permeabilized for 5 min with 0.1% Triton X-100 (Sigma) in PBS (Fisher Scientific). The nonspecific sites are blocked with 2% BSA (Sigma) in PBS. Incubations are carried out for 1 h at ambient temperature, 48 h at 4° C., 24 h at 4° C. and 1 h at ambient temperature for the anti-CD133, anti-GFAP, anti-NFL and anti-Fibroblast antibodies respectively. Incubation with the secondary antibodies is carried out for 1 h at ambient temperature. The CD133 positive cells are detected by the DAB/H2O2 system (Sigma), and observed with an optical microscope.
The immunolabelling is carried out as described above (section II, A).

C6 cells = test: Anti-GBM activity in vitro on cultures of C6 cells (cell counting, protein assay, MTT test); format: cell-based, rat
Method: as §1
The cultures are incubated in a Sanyo incubator (Japan, model MCO-19AlC-UV) at 37° C. and in an atmosphere with 5% CO2 and saturated in humidity. The cells are observed with an inverted microscope (Nikon Eclipse TS100, Japan) and the photographs are taken with a camera (DIGITAL camera with c-mount; LABOVER, France). The culture hood is a microbiological safety hood MSC (thermo SCIENTIFIC, model HERA SAFE KS12, France).
The type C6 cell line was obtained by Benda et al. (16) from rat brain tumours, induced by N-methylnitrosourea. This cell type is used as “in vitro” and “in vivo” model for evaluating anti-GBM potential. The lines originate from the former Strasbourg Neurochemistry Centre (U44 INSERM and UPR 416 CNRS).
The culture medium is made up of 70% Minimum Essential Medium (MEM; (Fischer Scientifique, ref. 61100) and 30% Hanks solution (SIGMA, ref. H 9269). The following are added to the culture medium: foetal calf serum (FCS; Fischer Scientifique, ref. 10108165) at a final concentration of 5% (v/v), an antibiotic solution of ciprofloxacin hydrochloride 5 μg/mL (EUROMEDEX, ref. UC5074) and a solution of Fungizone 2.5 μg/mL (INVITROGEN, ref. 15290-026). The doubling time of this cell type is 17 h. • GBM lines of human origin
The active ingredients are either dissolved in absolute ethanol (AnalaR, NORMAPUR, VWR, France) or in the form of a liposomal solution, such as 10 μl of the stock solutions diluted in 990 μl and then added to the culture wells (200 μl of culture medium) giving concentrations of 30.0, 15.0, 7.5 and 3.3 μM (final volume of culture medium per well BI-GBM: 300 μl).
as §2
A method of cell counting on photographs was used.
as §3, §4
In control wells, 10 μl of a solution of bovine serum albumin range (crystallized BSA, Sigma) is added; the range is from 0 to 20 μg per well. The wells are then supplemented with 40 μl of Laemmli buffer. Finally, 200 μl of solution of BCA reagent is added (Pierce, USA; BCA Protein Assay Kit; ThemoScientific, France).
The culture plates are incubated for 30 min at 37° C. The optical density for each well is read and quantified by a plate reader (BioRad, USA, iMark Microplate reader 12222) at 570 nm.
This test makes it possible to detect the cellular respiration, especially the mitochondrial respiration. The stock solution of tetrazolium salt MTT (3-(4,5-dimethylthiazol-2-yl)-2,5-diphenyl tetrazolium bromide, Sigma-Aldrich, USA, ref. M5655) is prepared with 10 mg of MIT/ml of PBS buffer (phosphate-buffered saline, SIGMA, ref. D 1408). […]

[4] = system: Neuroblastoma (line SH-SY5Y, ATCC-CRL-2266); test: Activity in vitro on human neuroblastomas; format: cell-based; details: 22 μM once, concentrated liposomal form, 28 days of treatment
Method: They were obtained from the ATCC collection (Ref. ATCC-CRL-2266). The culture conditions are based on the recommendations in the ATCC information leaflet. • Chronic Myelomonocytic Leukaemia (CMML)
The neuroblastomas were treated with empty liposomes (controls) or with liposomes containing molecule 1.b or 2.b, 24 h after starting the culture. The cells are treated once with 22 μM of molecule 1.b or 22 μM of molecule 2.b. The liposomal form is concentrated.
For the control cells, the upper left hand photograph marked with the letter A was taken after 7 days of treatment; the lower left hand photograph marked with the letter B was taken after 28 days of treatment.
For the cells treated with the concentrated liposomal molecule 1.b, the photograph marked with the letter C (in the middle, at the top) was taken after 7 days of treatment and the photograph marked with the letter D (in the middle, at the bottom) after 28 days of treatment. For the cells treated with the concentrated liposomal molecule 2.b, the upper right hand photograph marked with the letter E was taken after 7 days of treatment.

SMILES: CC(C)CCC[C@@H](C)[C@H]1CC[C@H]2[C@@H]3[C@@H](O)C=C4C[C@@H](O)CC[C@]4(C)[C@H]3CC[C@]12C [7β-OHCH, 7β-Hydroxycholesterol]
cytotoxicity (GBMs (rat line C6)): remarkable cytotoxicity | cytotoxicity [1]: remarkable cytotoxicity | death of GBMs ([2]; control experiments at the very low levels formed from molecule 2.b): do not induce any death of GBMs

solubility in ethanol (concentration above which no longer soluble) (Solubility in ethanol): ≤ 30 µM
SMILES: CCCCCCCC/C=C\CCCCCCCC(=O)O[C@H]1CC[C@@]2(C)C(=C[C@H](O)[C@H]3[C@@H]4CC[C@H]([C@H](C)CCCC(C)C)[C@@]4(C)CC[C@@H]32)C1 [7β-OHCH—C3-ester]
CD133+ cells, percentage relative to the controls ([3]; 4 days of treatment): 100% | CD133+ cells, percentage relative to the controls ([3]; 22 days of treatment): 50% | destruction of the CD133+ stem cells [3]: This is not the case | destruction of the CD133+ stem cells ([3]; listed as 7beta-OHCH-C3-ester): does not completely destroy the CD 133+ | action on the GBMs (CA) ([2]; ethanolic form): does not act | anti-tumour activity ([2]; ethanolic form): no anti-tumour activity is observed | efficacy on increasing the dose ([2]; liposomal form): not better, or even decreases | reduction of the level of proteins relative to the untreated control cells ([2]; liposomal form): 85% | MTT/cell ratio ([2]; liposomal form, 80 μM): does not vary | action on the GBMs (CA) ([2]; liposomal form, 80 μM): only acts in liposomal form | cell multiplication after replacing the medium with fresh drug-free medium ([2]; liposomal form, medium replaced on the 13th day of treatment): cell multiplication is observed | increase in the MTT test after removal of the drug ([2]; medium replaced on the 13th day, two days later): 40%

SMILES: CC(C)CCCC(C)C1CCC2C3C(OC(=O)OC(C)(C)C)C=C4CC(OC(=O)C(C)NC(=O)CNC(=O)OCc5ccccc5)CCC4(C)C3CCC12C (centres unmarked) [Molecule 1.a, 7-((tert-butoxycarbonyl)oxy)-10,13-dimethyl-17-(6-methylheptan-2-yl)-2,3,4,7,8,9,10,11,12,13,14,15,16,17-tetradecahydro-1H-cyclopenta[a]phenanthren-3-yl 2-(2-(((benzyloxy)carbonyl)amino)acetamido)propanoate]
increase of the MTT/cell ratio relative to the control cultures (C6 cells; 15 μM, 19 days of treatment): 20% | reduction of the number of cells, the level of proteins and the MTT assay (C6 cells; 15 μM, ethanolic form, 14 days of treatment): 30% | reduction of the number of cells, the level of proteins and the MTT assay (C6 cells; 15 μM, ethanolic form, 19 days of treatment): ≥ 97% | dose-dependence (C6 cells; 7.5 and 3.3 μM, 19 days of treatment): dose-dependence is also observed | Live residual cells (C6 cells; 15 μm, ethanol 3%): 3% | cytotoxicity (C6 cells; ethanolic form, after 19 days of treatment): cytotoxic

SMILES: CC(=O)OC1C=C2CC(OC(=O)C(C)NC(=O)CNC(=O)OCc3ccccc3)CCC2(C)C2CCC3(C)C(C(C)CCCC(C)C)CCC3C12 (centres unmarked) [Molecule 1.b, 7-acetoxy-10,13-dimethyl-17-(6-methylheptan-2-yl)-2,3,4,7,8,9,10,11,12,13,14,15,16,17-tetradecahydro-1H-cyclopenta[a]phenanthren-3-yl 2-(2-(((benzyloxy)carbonyl)amino)acetamido)propanoate]
toxicity to neuroblastoma cells compared to the control cells [4]: toxic to almost all the cells
